According to US9212182B2, “Bicyclic sulfonamide compounds as sodium channel inhibitors” (AMGEN INC., priority 2013, dated 2015):

Each compound was assayed against Nav 1.7 (Homo sapiens (Human), UniProt Q15858) (assay: in-vitro Nav 1.7 PX (IC50)). Conditions: not given.
Assay type: cell-based

Nav 1.7, sequence (Q15858 whole entry): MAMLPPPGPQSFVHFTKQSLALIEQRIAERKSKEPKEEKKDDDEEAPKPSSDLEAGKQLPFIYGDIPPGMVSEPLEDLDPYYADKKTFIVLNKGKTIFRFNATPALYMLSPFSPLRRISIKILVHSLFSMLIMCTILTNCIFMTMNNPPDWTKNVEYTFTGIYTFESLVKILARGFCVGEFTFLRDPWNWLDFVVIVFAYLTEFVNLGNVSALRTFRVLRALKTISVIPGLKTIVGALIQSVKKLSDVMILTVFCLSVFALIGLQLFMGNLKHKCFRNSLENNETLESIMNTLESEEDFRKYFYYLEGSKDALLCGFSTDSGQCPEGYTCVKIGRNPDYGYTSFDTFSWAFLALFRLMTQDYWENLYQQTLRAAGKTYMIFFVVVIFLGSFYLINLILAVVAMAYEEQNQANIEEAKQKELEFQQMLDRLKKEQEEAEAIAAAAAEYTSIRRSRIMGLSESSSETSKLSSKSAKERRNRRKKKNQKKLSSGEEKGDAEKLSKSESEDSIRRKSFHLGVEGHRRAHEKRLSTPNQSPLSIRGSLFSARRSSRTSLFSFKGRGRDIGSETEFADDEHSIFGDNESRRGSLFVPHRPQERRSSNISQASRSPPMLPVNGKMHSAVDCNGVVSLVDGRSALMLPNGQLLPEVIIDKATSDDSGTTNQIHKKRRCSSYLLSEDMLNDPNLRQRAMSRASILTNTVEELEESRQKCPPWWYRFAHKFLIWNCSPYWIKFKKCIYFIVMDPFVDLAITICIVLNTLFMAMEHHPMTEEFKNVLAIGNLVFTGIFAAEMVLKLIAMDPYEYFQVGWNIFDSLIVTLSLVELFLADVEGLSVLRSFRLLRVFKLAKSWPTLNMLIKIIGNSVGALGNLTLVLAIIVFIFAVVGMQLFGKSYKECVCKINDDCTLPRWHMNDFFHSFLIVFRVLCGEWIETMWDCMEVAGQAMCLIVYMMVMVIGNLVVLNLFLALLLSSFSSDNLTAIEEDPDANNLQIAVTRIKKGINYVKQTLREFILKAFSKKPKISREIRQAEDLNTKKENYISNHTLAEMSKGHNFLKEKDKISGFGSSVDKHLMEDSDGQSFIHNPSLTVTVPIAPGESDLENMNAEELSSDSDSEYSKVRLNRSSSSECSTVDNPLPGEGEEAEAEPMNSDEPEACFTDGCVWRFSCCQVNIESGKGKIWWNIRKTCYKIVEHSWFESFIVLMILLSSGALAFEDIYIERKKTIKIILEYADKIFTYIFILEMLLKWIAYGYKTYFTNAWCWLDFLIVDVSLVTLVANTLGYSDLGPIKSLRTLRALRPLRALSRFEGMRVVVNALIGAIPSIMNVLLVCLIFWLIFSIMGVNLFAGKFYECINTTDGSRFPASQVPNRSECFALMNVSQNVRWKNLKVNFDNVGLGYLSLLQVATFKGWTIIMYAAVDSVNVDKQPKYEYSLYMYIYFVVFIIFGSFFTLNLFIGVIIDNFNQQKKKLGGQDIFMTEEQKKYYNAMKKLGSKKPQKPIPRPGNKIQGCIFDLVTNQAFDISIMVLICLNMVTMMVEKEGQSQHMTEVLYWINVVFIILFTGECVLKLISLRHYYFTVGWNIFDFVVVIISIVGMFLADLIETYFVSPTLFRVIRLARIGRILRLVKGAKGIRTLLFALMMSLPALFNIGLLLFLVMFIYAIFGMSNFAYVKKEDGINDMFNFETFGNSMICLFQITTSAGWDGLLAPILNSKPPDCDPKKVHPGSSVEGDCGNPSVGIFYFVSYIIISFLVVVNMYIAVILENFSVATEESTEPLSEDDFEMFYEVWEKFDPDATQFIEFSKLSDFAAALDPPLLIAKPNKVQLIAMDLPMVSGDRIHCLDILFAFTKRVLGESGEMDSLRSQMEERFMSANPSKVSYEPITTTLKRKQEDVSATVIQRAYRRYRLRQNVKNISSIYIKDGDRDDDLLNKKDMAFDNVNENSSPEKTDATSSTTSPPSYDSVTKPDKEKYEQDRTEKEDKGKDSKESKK

SMILES | IC50 [nM]
Cc1cc(-c2cccc(F)c2)c(F)cc1-n1c(=O)ccc2cc(S(=O)(=O)Nc3ccon3)ccc21 (atropisomer, axis not shown; (P)) [Example 390, (P)-1-(2,3′-difluoro-5-methyl-[1,1′-biphenyl]-4-yl)-N-(isoxazol-3-yl)-2-oxo-1,2-dihydroquinoline-6-sulfonamide] | 100
COc1cc(-c2cccc(OC(C)C)c2)ccc1-n1c(=O)ccc2cc(S(=O)(=O)Nc3cccc(F)n3)ccc21 (atropisomer, axis not shown; (P)) [Example 1208, (P)-N-(6-fluoro-2-pyridinyl)-1-(3-methoxy-3′-(1-methylethoxy)-4-biphenylyl)-2-oxo-1,2-dihydro-6-quinolinesulfonamide] | 258
COc1cc(-c2cnc(OC)c(Cl)c2)c(F)cc1-n1c(=O)ccc2cc(S(=O)(=O)Nc3ncc(F)cn3)ccc21 (atropisomer, axis not shown; (P)) [Example 1156, (P)-1-(4-(5-chloro-6-methoxy-3-pyridinyl)-5-fluoro-2-methoxyphenyl)-N-(5-fluoro-2-pyrimidinyl)-2-oxo-1,2-dihydro-6-quinolinesulfonamide] | 42
COc1cc(-c2ccc(Cl)c(C)c2)c(C)cc1-n1c(=O)ccc2cc(S(=O)(=O)Nc3ccon3)ccc21 (atropisomer, axis not shown; (P)) [Example 421, (P)-1-(4′-chloro-5-methoxy-2,3′-dimethyl-4-biphenylyl)-N-3-isoxazolyl-2-oxo-1,2-dihydro-6-quinolinesulfonamide] | 16
COc1ccc(C#CC2CCCC2)cc1-n1c(=O)ccc2cc(S(=O)(=O)Nc3ccon3)ccc21 [Example 1147, 1-(5-(cyclopentylethynyl)-2-methoxyphenyl)-N-3-isoxazolyl-2-oxo-1,2-dihydro-6-quinolinesulfonamide] | 121
COc1cc(-c2cccc(OC(F)F)c2)c(F)cc1-n1c(=O)ccc2cc(S(=O)(=O)Nc3cccnn3)ccc21 (atropisomer, axis not shown; (P)) [Example 1172, (P)-1-(3′-(difluoromethoxy)-2-fluoro-5-methoxy-4-biphenylyl)-2-oxo-N-3-pyridazinyl-1,2-dihydro-6-quinolinesulfonamide] | 29
COc1cc(-c2cccc(C)c2)ccc1-n1c(=O)ccc2cc(S(=O)(=O)Nc3ccon3)ccc21 (atropisomer, axis not shown; (M)) [Example 583, (M)-N-3-isoxazolyl-1-(3-methoxy-3′-methyl-4-biphenylyl)-2-oxo-1,2-dihydro-6-quinolinesulfonamide] | > 10000

Same assay, conditions: in-vitro Nav 1.7 PX data

SMILES | IC50 [nM]
COc1cc(-c2ccccc2)c(F)cc1-n1c(=O)ccc2cc(S(=O)(=O)Nc3ccon3)ccc21 [Example 701, 1-(2-fluoro-5-methoxy-4-biphenylyl)-N-3-isoxazolyl-2-oxo-1,2-dihydro-6-quinolinesulfonamide] | 104
COc1cc(-c2ccc(F)cc2)c(F)cc1-n1c(=O)ccc2cc(S(=O)(=O)Nc3ncco3)ccc21 [Example 771, 1-(2,4′-difluoro-5-methoxy-4-biphenylyl)-N-1,3-oxazol-2-yl-2-oxo-1,2-dihydro-6-quinolinesulfonamide] | 53
COc1ccc(-c2ccc(C)c(Cl)c2)cc1-n1c(=O)ccc2cc(S(=O)(=O)Nc3ccon3)ccc21 [Example 885, 1-(3′-chloro-4-methoxy-4′-methyl-3-biphenylyl)-N-3-isoxazolyl-2-oxo-1,2-dihydro-6-quinolinesulfonamide] | 12
COc1ccc(-c2cc(F)cc(Cl)c2)cc1-n1c(=O)ccc2cc(S(=O)(=O)Nc3cnccn3)ccc21 [Example 876, 1-(3′-chloro-5′-fluoro-4-methoxy-3-biphenylyl)-2-oxo-N-2-pyrazinyl-1,2-dihydro-6-quinolinesulfonamide] | 206
COc1cc(-c2ccc(Cl)cc2)c(F)cc1-n1c(=O)ccc2cc(S(=O)(=O)Nc3ccon3)ccc21 (atropisomer, axis not shown; (P)) [Example 633, (P)-1-(4′-chloro-2-fluoro-5-methoxy-4-biphenylyl)-N-3-isoxazolyl-2-oxo-1,2-dihydro-6-quinolinesulfonamide] | 7
COc1ccc(-c2cc(OC)c(-n3c(=O)ccc4cc(S(=O)(=O)Nc5ccon5)ccc43)cc2F)cc1C [Example 749, 1-(2-fluoro-4′,5-dimethoxy-3′-methyl-4-biphenylyl)-N-3-isoxazolyl-2-oxo-1,2-dihydro-6-quinolinesulfonamide] | 48
COc1ccc(-c2ccc(C(F)(F)F)cc2)cc1-n1c(=O)ccc2cc(S(=O)(=O)Nc3ccon3)ccc21 [Example 843, N-3-isoxazolyl-1-(4-methoxy-4′-(trifluoromethyl)-3-biphenylyl)-2-oxo-1,2-dihydro-6-quinolinesulfonamide] | 23
COc1cc(-c2cccc(Cl)c2C)ccc1-n1c(=O)ccc2cc(S(=O)(=O)Nc3ccon3)ccc21 [Example 1028, 1-(3′-chloro-3-methoxy-2′-methyl-4-biphenylyl)-N-3-isoxazolyl-2-oxo-1,2-dihydro-6-quinolinesulfonamide] | 18
COc1cc(-c2cc(C)cnc2OC)ccc1-n1c(=O)ccc2cc(S(=O)(=O)Nc3ccon3)ccc21 [Example 1022, N-3-isoxazolyl-1-(2-methoxy-4-(2-methoxy-5-methyl-3-pyridinyl)phenyl)-2-oxo-1,2-dihydro-6-quinolinesulfonamide] | 139
COc1cc(-c2ccc(Cl)c(C)c2)ccc1-n1c(=O)ccc2cc(S(=O)(=O)Nc3ncc(F)cn3)ccc21 (atropisomer, axis not shown; (P)) [Example 690, (P)-1-(4′-chloro-3-methoxy-3′-methyl-4-biphenylyl)-N-(5-fluoro-2-pyrimidinyl)-2-oxo-1,2-dihydro-6-quinolinesulfonamide] | 49
COc1cc(-c2cccc(OC)c2Cl)c(F)cc1-n1c(=O)ccc2cc(S(=O)(=O)Nc3ccon3)ccc21 [Example 731, 1-(2′-chloro-2-fluoro-3′,5-dimethoxy-4-biphenylyl)-N-3-isoxazolyl-2-oxo-1,2-dihydro-6-quinolinesulfonamide] | 142
COc1nc(-c2cccc(C)c2)c(Cl)cc1-n1c(=O)ccc2cc(S(=O)(=O)Nc3ccon3)ccc21 [Example 1089, 1-(5-chloro-2-methoxy-6-(3-methylphenyl)-3-pyridinyl)-N-3-isoxazolyl-2-oxo-1,2-dihydro-6-quinolinesulfonamide] | 3240

Same assay, conditions: in-vitro Nav 1.7 PX data (PatchXpress)

SMILES | IC50 [nM]
COc1ccc(-c2ccc(-n3c(=O)ccc4cc(S(=O)(=O)Nc5ccon5)ccc43)c(OC)c2)c(Cl)c1 [Example 1061, 1-(2′-chloro-3,4′-dimethoxy-4-biphenylyl)-N-3-isoxazolyl-2-oxo-1,2-dihydro-6-quinolinesulfonamide] | 61

Same assay, conditions: in-vitro Nav 1.7 PX data, Table 4

SMILES | IC50 [nM]
COc1cc(-c2cnc(OC)c(Cl)c2)c(F)cc1-n1c(=O)ccc2cc(S(=O)(=O)Nc3cccc(F)n3)ccc21 (atropisomer, axis not shown; (P)) [Example 1162, (P)-1-(4-(5-chloro-6-methoxy-3-pyridinyl)-5-fluoro-2-methoxyphenyl)-N-(6-fluoro-2-pyridinyl)-2-oxo-1,2-dihydro-6-quinolinesulfonamide] | 12

Same assay, conditions: in-vitro PatchXpress (PX)

SMILES | IC50 [nM]
COc1cc(-c2ccc(F)c(Cl)c2)c(F)cc1-n1c(=O)ccc2cc(S(=O)(=O)Nc3ccon3)ccc21 (atropisomer, axis not shown; (M)) [Example 366, (M)-1-(3′-chloro-2,4′-difluoro-5-methoxy-4-biphenylyl)-N-3-isoxazolyl-2-oxo-1,2-dihydro-6-quinolinesulfonamide] | 1260
